This note sets out measurements from patent publication US11292788B2, “IL-17 and IFN-gamma inhibition for the treatment of autoimmune diseases and chronic inflammation” (Immunic AG, priority 2017, dated 2022).

Molecules are shown by their SMILES. Like-named read-outs stand apart in the source and are kept apart here.

What all share (format): cell-based
One test deals with INF-γ. Kind of test: Cytokine assay: INF-γ production by human PBMC stimulated with PHA. The settings on record: IC50 class, read-out: IFN-gamma Inhib. On the procedure: (§1) Cytokine Assay: Analysis of Proliferation of and Cytokine Production by Human PBMC Stimulated with PHA
(§2) Peripheral blood mononuclear cells (PBMC) from healthy human donors were purified using Accuspin™ System-Histopaque-1077 (Sigma) according to the protocol recommended by the manufacturer. Purified PBMC were then washed twice with phosphate-buffered saline (PBS) and resuspended in RPMI1640 culture medium supplemented with 10% dialyzed heat inactivated fetal calf serum, 1.5 mM L-glutamine, 100 U penicillin/ml, and […] (all from PAN Biotech, Aidenbach, Germany). For stimulation, PBMC were seeded at 1×10^5 cells/well, activated with 2 μg/ml phytohaemagglutinin (PHA, Sigma) and incubated with the test compounds for 48 hours. IL-17A, IL-17F and INF-γ were then determined in the culture supernatant using a Luminex BioPlex system, following the manufacturer's instructions (BioRad, Munich, Germany). For screening, compounds were used at 10, 1, 0.1 and 0.01 μM. To determine the IC50, compounds were titrated semilogarithmically.
(§3) Cytokines were determined in the aforementioned culture supernatant using the following methods: IL-17A was measured using the human homodimer IL-17A ELISA Ready Set Go Kit from eBioscience (Frankfurt, Germany); IL-17F using the human IL-17F ELI-Pair from Hölzel DiagnosticaGmBH (Köln, Germany); and IFN-γ using the OptEIA human IFN-g ELISA from BD Bioscience (Heidelberg, Germany), all following the manufacturer's instructions.

The test system of a further test is IL-17A. Kind of test: Cytokine assay: IL-17A production by human PBMC stimulated with PHA. The settings on record: IC50 class, read-out: IL-17A Inhib. The method, then: as §1, §2, §3
The test system of a further test is IL-17F. In words: Cytokine assay: IL-17F production by human PBMC stimulated with PHA. The conditions noted are these: IC50 class, read-out: IL-17F Inhib. On the procedure:
as §1, §2, §3

As to `Cc1c(-c2onc(-c3ccccc3Cl)c2C(=O)OC2COC2)cnn1C[C@H](C)O` [Example 47, oxetan-3-yl 3-(2-chlorophenyl)-5-{1-[(2S)-2-hydroxypropyl]-5-methyl-1H-pyrazol-4-yl}-1,2-oxazole-4-carboxylate], the IC50 with INF-γ (Homo sapiens, PBMC) lay within 0.05 to 0.5 µM; with IL-17A (Homo sapiens, PBMC) it was 0.05 to 0.5 µM; with IL-17F (Homo sapiens, PBMC), 0.05 to 0.5 µM.
On to `C[C@]1(O)C[C@H](n2ncc(-c3onc(-c4ccccc4Cl)c3C(=O)OC3CC3)c2C(F)(F)F)C1` [Example 48, cyclopropyl 3-(2-chlorophenyl)-5-(1-(3-hydroxy-3-methylcyclobutyl)-5-(trifluoromethyl)-1H-pyrazol-4-yl)isoxazole-4-carboxylate], for which the IC50 in the test with INF-γ, with IL-17A and in the test on IL-17F was 0.5 to 5 µM throughout.
As to `C[C@]1(O)C[C@H](n2ncc(-c3onc(-c4c(F)cccc4Cl)c3C(=O)OC3CC3)c2C(F)(F)F)C1` [Example 50, cyclopropyl 3-(2-chloro-6-fluorophenyl)-5-(1-(3-hydroxy-3-methylcyclobutyl)-5-(trifluoromethyl)-1H-pyrazol-4-yl)isoxazole-4-carboxylate], the IC50 in the test on INF-γ (Homo sapiens, PBMC) is less than 0.05 µM; in the test on IL-17A (Homo sapiens, PBMC), 0.05 to 0.5 µM; in the test on IL-17F (Homo sapiens, PBMC) it was less than 0.05 µM.
As to `Cc1c(-c2onc(-c3ccccc3Cl)c2C(=O)OC2COC2)cnn1[C@H]1C[C@@](C)(O)C1` [Example 52, oxetan-3-yl 3-(2-chlorophenyl)-5-(1-(3-hydroxy-3-methylcyclobutyl)-5-methyl-1H-pyrazol-4-yl)isoxazole-4-carboxylate], the IC50 was in the range of 0.05 to 0.5 µM in the test with INF-γ (Homo sapiens, PBMC); 0.05 to 0.5 µM in the test with IL-17A (Homo sapiens, PBMC); 0.05 to 0.5 µM with IL-17F (Homo sapiens, PBMC).
Take `Cc1c(-c2onc(-c3ccccc3Cl)c2C(=O)OC2CC2)cnn1[C@H]1C[C@@](C)(O)C1` [Example 54, cyclopropyl 3-(2-chlorophenyl)-5-{5-methyl-1-[3-hydroxy-3-methylcyclobutyl]-1H-pyrazol-4-yl}-1,2-oxazole-4-carboxylate]: the IC50 with INF-γ fell in the range of 0.05 to 0.5 µM; in the test with IL-17A, 0.5 to 5 µM; with IL-17F, 0.5 to 5 µM.
Regarding `CC(C)(O)Cn1ncc(-c2onc(-c3c(F)cccc3Cl)c2C(=O)OC2COC2)c1C(F)(F)F` [Example 57, oxetan-3-yl 3-(2-chloro-6-fluorophenyl)-5-[1-(2-hydroxy-2-methylpropyl)-5-(trifluoromethyl)-1H-pyrazol-4-yl]-1,2-oxazole-4-carboxylate], the IC50 in the test with INF-γ (Homo sapiens, PBMC) was 0.05 to 0.5 µM; in the test on IL-17A (Homo sapiens, PBMC), 0.5 to 5 µM; in the test on IL-17F (Homo sapiens, PBMC) it was 0.05 to 0.5 µM.
As to `CC(C)(O)Cn1ncc(-c2onc(-c3c(F)cccc3Cl)c2CO)c1C(F)(F)F` [Example 63, 1-(4-(3-(2-chloro-6-fluorophenyl)-4-(hydroxymethyl)isoxazol-5-yl)-5-(trifluoromethyl)-1H-pyrazol-1-yl)-2-methylpropan-2-ol], the IC50 with INF-γ (Homo sapiens, PBMC) was not below 5 µM; in the test on IL-17A (Homo sapiens, PBMC), not below 5 µM; with IL-17F (Homo sapiens, PBMC), not below 5 µM.
As for `C[C@]1(O)C[C@@H](n2ncc(-c3onc(-c4ccccc4Cl)c3CO)c2C(F)(F)F)C1` [Example 64, 3-(4-(3-(2-chlorophenyl)-4-(hydroxymethyl)-1,2-oxazol-5-yl)-5-(trifluoromethyl)-1H-pyrazol-1-yl)-1-methylcyclobutan-1-ol], the IC50 in the test on INF-γ (Homo sapiens, PBMC) is 0.5 to 5 µM; with IL-17A (Homo sapiens, PBMC), not below 5 µM; in the test on IL-17F (Homo sapiens, PBMC), not below 5 µM.
Turning to `COCc1c(-c2c(F)cccc2Cl)noc1-c1cnn(C[C@H](C)O)c1C(F)(F)F` [Example 68, (2S)-1-(4-(3-(2-chloro-6-fluorophenyl)-4-(methoxymethyl)isoxazol-5-yl)-5-(trifluoromethyl)-1H-pyrazol-1-yl)propan-2-ol], the IC50 with INF-γ (Homo sapiens, PBMC) was 0.05 to 0.5 µM; with IL-17A (Homo sapiens, PBMC), 0.5 to 5 µM; with IL-17F (Homo sapiens, PBMC), 0.5 to 5 µM.
As for `COCc1c(-c2ccccc2Cl)noc1-c1cnn([C@H]2C[C@@](C)(O)C2)c1C` [Example 72, 3-{4-[3-(2-chlorophenyl)-4-(methoxymethyl)-1,2-oxazol-5-yl]-5-methyl-1H-pyrazol-1-yl}-1-methylcyclobutan-1-ol], the IC50 in the test on INF-γ (Homo sapiens, PBMC) is less than 0.05 µM; in the test on IL-17A (Homo sapiens, PBMC), 0.05 to 0.5 µM; in the test with IL-17F (Homo sapiens, PBMC), 0.05 to 0.5 µM.
Take `COCc1c(-c2ccccc2Cl)noc1-c1cnn([C@H]2C[C@](C)(O)C2)c1C` [Example 73, 3-{4-[3-(2-chlorophenyl)-4-(methoxymethyl)-1,2-oxazol-5-yl]-5-methyl-1H-pyrazol-1-yl}-1-methylcyclobutan-1-ol]: the IC50 with INF-γ (Homo sapiens, PBMC) is 0.5 to 5 µM; in the test on IL-17A (Homo sapiens, PBMC), 0.5 to 5 µM; with IL-17F (Homo sapiens, PBMC), 0.5 to 5 µM.
On to `COCc1c(-c2ccccc2Cl)noc1-c1cnn([C@H]2C[C@@](C)(O)C2)c1C(F)(F)F` [Example 74, 3-(4-(3-(2-chlorophenyl)-4-(methoxymethyl)isoxazol-5-yl)-5-(trifluoromethyl)-1H-pyrazol-1-yl)-1-methylcyclobutan-1-ol], for which the IC50 is 0.05 to 0.5 µM with INF-γ (Homo sapiens, PBMC); 0.05 to 0.5 µM in the test with IL-17A (Homo sapiens, PBMC); 0.05 to 0.5 µM in the test with IL-17F (Homo sapiens, PBMC).
Turning to `COCCOCc1c(-c2ccccc2Cl)noc1-c1cnn(C[C@H](C)O)c1C(F)(F)F` [Example 75, (2S)-1-{4-[3-(2-chlorophenyl)-4-[(2-methoxyethoxy)methyl]-1,2-oxazol-5-yl]-5-(trifluoromethyl)-1H-pyrazol-1-yl}propan-2-ol], the IC50 in the test with INF-γ (Homo sapiens, PBMC) was in the range of 0.5 to 5 µM; with IL-17A (Homo sapiens, PBMC) it was 0.5 to 5 µM; with IL-17F (Homo sapiens, PBMC), 0.5 to 5 µM.
Regarding `Cc1c(-c2onc(-c3ccccc3Cl)c2COC2CC2)cnn1CCC(C)(C)O` [Example 79, 4-{4-[3-(2-chlorophenyl)-4-(cyclopropoxymethyl)-1,2-oxazol-5-yl]-5-methyl-1H-pyrazol-1-yl}-2-methylbutan-2-ol], the IC50 in the test with INF-γ (Homo sapiens, PBMC) was less than 0.05 µM; with IL-17A (Homo sapiens, PBMC), 0.05 to 0.5 µM; in the test with IL-17F (Homo sapiens, PBMC), 0.05 to 0.5 µM.
Consider `Cc1c(-c2onc(-c3ccccc3Cl)c2COC2CC2)cnn1[C@H]1C[C@](C)(O)C1` [Example 81, 3-{4-[3-(2-chlorophenyl)-4-(cyclopropoxymethyl)-1,2-oxazol-5-yl]-5-methyl-1H-pyrazol-1-yl}-1-methylcyclobutan-1-ol], for which the IC50 was in the range of 0.05 to 0.5 µM in the test on INF-γ (Homo sapiens, PBMC); 0.5 to 5 µM in the test with IL-17A (Homo sapiens, PBMC); 0.5 to 5 µM in the test with IL-17F (Homo sapiens, PBMC).
Take `Cc1c(-c2onc(-c3c(F)cccc3Cl)c2COC2CC2)cnn1[C@H]1C[C@](C)(O)C1` [Example 84, 3-{4-[3-(2-chloro-6-fluorophenyl)-4-(cyclopropoxymethyl)-1,2-oxazol-5-yl]-5-methyl-1H-pyrazol-1-yl}-1-methylcyclobutan-1-ol]: the IC50 in the test with INF-γ (Homo sapiens, PBMC) lay in the range of 0.05 to 0.5 µM; with IL-17A (Homo sapiens, PBMC) it was 0.05 to 0.5 µM; in the test with IL-17F (Homo sapiens, PBMC), 0.05 to 0.5 µM.
Regarding `C[C@H](O)Cn1ncc(-c2onc(-c3ccccc3Cl)c2COC2COC2)c1C(F)(F)F` [Example 88, (S)-1-(4-(3-(2-chlorophenyl)-4-((oxetan-3-yloxy)methyl)isoxazol-5-yl)-5-(trifluoromethyl)-1H-pyrazol-1-yl)propan-2-ol], the IC50 with INF-γ (Homo sapiens, PBMC) is 0.5 to 5 µM; in the test with IL-17A (Homo sapiens, PBMC), not below 5 µM; with IL-17F (Homo sapiens, PBMC) it was 0.5 to 5 µM.
For the compound `COc1cccc(-c2noc(-c3cnn(CCC(C)(C)O)c3C(F)(F)F)c2COC2CC2)c1Cl` [Example 91, 4-{4-[3-(2-chloro-3-methoxyphenyl)-4-(cyclopropoxymethyl)-1,2-oxazol-5-yl]-5-(trifluoromethyl)-1H-pyrazol-1-yl}-2-methylbutan-2-ol], the IC50 in the test with INF-γ (Homo sapiens, PBMC) is less than 0.05 µM; in the test with IL-17A (Homo sapiens, PBMC) it was less than 0.05 µM; in the test with IL-17F (Homo sapiens, PBMC) it was less than 0.05 µM.
Take `COC(=O)c1c(-c2cccnc2O)noc1-c1cnn(CC(C)(C)O)c1C(F)(F)F` [Example 93, methyl 5-[1-(2-hydroxy-2-methylpropyl)-5-(trifluoromethyl)-1H-pyrazol-4-yl]-3-(2-hydroxypyridin-3-yl)-1,2-oxazole-4-carboxylate]: the IC50 with INF-γ (Homo sapiens, PBMC) was in the range of 0.05 to 0.5 µM; in the test with IL-17A (Homo sapiens, PBMC), 0.5 to 5 µM; with IL-17F (Homo sapiens, PBMC) it was 0.05 to 0.5 µM.
As for `C[C@@H](O)Cn1ncc(-c2cc(-c3c(F)cccc3Cl)no2)c1C(F)(F)F` [Example 94, (2R)-1-(4-(3-(2-chloro-6-fluorophenyl)isoxazol-5-yl)-5-(trifluoromethyl)-1H-pyrazol-1-yl)propan-2-ol], the IC50 in the test on INF-γ (Homo sapiens, PBMC) is 0.5 to 5 µM; with IL-17A (Homo sapiens, PBMC), not below 5 µM; in the test on IL-17F (Homo sapiens, PBMC), not below 5 µM.
Turning to `C[C@H](O)Cn1ncc(-c2onc(-c3ccccc3Cl)c2C2CCCO2)c1C(F)(F)F` (stereo partly drawn) [Example 96, (2S)-1-{4-[3-(2-chlorophenyl)-4-(oxolan-2-yl)-1,2-oxazol-5-yl]-5-(trifluoromethyl)-1H-pyrazol-1-yl}propan-2-ol], the IC50 in the test with INF-γ (Homo sapiens, PBMC) fell in the range of 0.05 to 0.5 µM; with IL-17A (Homo sapiens, PBMC), 0.5 to 5 µM; in the test on IL-17F (Homo sapiens, PBMC), 0.5 to 5 µM.
As for `C[C@]1(O)C[C@@H](n2ncc(-c3onc(-c4c(F)cccc4Cl)c3-c3ccncn3)c2C(F)(F)F)C1` [Example 105, 3-{4-[3-(2-chloro-6-fluorophenyl)-4-(pyrimidin-4-yl)-1,2-oxazol-5-yl]-5-(trifluoromethyl)-1H-pyrazol-1-yl}-1-methylcyclobutan-1-ol], the IC50 in the test with INF-γ is 0.05 to 0.5 µM; in the test with IL-17A it was 0.5 to 5 µM; in the test on IL-17F it was 0.05 to 0.5 µM.
